Test results reported in patent US11970463B2, “Compounds and their use” (ASTRAZENECA AB, priority 2021, dated 2024).
pEC50, pIC50: −log10 of the molar value. In brackets after ≈: the same amount, converted by molar mass. Like-named read-outs stand apart in the source and are kept apart here.

Experiments:
[1] = target: T1, Human NLRP3 (Homo sapiens (Human), UniProt Q96P20); assay: Human NLRP3 speck formation assay (Test A), nigericin triggered ASC-speck formation in ASC-GFP reporter monocytes
[2] = Solubility (Test E); format: physicochemical
[3] = Solubility (Test F), McIlvaine buffer pH 6.5; format: physicochemical; settings: disodium hydrogenphosphate-citric acid (McIlvaine) buffer, 25 °C, pH 6.5, aqueous buffer, thermodynamic from solid, McIlvaine buffer pH 6.5, 25° C., 24 to 72 h; theoretical maximum 200 μM
[4] = target: T1, Human NLRP3
[5] = Test C IC50, IL-1β release, THP-1 cells, LPS 2 μg/mL 24 h, BzATP 1 mM

T1 sequence (Q96P20 whole entry): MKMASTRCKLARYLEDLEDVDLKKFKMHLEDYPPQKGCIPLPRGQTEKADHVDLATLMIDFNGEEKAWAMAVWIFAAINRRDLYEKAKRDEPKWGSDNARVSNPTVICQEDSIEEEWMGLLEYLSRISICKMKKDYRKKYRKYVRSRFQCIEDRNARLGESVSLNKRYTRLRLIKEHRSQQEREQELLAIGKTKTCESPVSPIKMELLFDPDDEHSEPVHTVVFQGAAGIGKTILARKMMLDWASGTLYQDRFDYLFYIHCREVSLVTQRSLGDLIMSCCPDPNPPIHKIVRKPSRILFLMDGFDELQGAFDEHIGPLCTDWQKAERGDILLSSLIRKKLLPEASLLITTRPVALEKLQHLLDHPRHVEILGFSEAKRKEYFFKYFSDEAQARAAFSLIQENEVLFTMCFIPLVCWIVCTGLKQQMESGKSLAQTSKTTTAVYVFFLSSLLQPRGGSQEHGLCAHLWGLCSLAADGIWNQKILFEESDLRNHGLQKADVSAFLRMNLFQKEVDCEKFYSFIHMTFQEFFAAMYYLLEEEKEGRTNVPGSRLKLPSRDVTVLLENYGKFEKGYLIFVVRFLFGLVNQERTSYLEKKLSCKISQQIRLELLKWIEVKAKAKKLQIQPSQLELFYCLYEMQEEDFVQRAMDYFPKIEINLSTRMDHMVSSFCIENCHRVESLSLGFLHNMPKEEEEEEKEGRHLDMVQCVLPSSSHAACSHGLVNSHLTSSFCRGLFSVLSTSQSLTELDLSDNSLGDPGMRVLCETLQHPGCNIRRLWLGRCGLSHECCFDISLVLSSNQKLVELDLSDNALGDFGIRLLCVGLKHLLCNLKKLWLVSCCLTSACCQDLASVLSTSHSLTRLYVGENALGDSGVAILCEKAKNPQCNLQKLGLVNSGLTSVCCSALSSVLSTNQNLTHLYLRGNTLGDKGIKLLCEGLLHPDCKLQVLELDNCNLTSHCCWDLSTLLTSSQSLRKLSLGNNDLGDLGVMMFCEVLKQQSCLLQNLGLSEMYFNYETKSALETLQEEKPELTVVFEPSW

| Compound | pEC50 [1] | solubility [2] | solubility [3] | pIC50 [4, 5] | pIC50 [4] |
| --- | --- | --- | --- | --- | --- |
| Oc1cccc(F)c1-c1nnc(N[C@@H]2CCCC[C@H]2O)c2ccncc12 [Example 77, 3-fluoro-2-(1-(((1R,2R)-2-hydroxycyclohexyl)amino)pyrido[3,4-d]pyridazin-4-yl)phenol] | 5.53 |  |  |  |  |
| Oc1cccc(F)c1-c1nnc(N[C@@H]2CC[C@H](O)C2)c2ccncc12 [Example 87, 3-fluoro-2-(1-(((1R,3S)-3-hydroxycyclopentyl)amino)pyrido[3,4-d]pyridazin-4-yl)phenol] | 5.21 | 25 µM (≈ 8.51 µg/mL) |  |  |  |
| Oc1cc(C(F)(F)F)ccc1-c1nnc(N[C@H]2CCC[C@@H](O)C2)c2cnccc12 [Example 82, 2-[4-[[(1S,3R)-3-hydroxycyclohexyl]amino]pyrido[3,4-d]pyridazin-1-yl]-5-(trifluoromethyl)phenol] |  | 34 µM (≈ 13.7 µg/mL) | 9.4 µg/mL (≈ 23.2 µM) |  |  |
| Oc1cc(C(F)(F)F)ccc1-c1nnc(N[C@H]2CCC[C@@H]2O)c2ccccc12 [Example 22, 2-[4-[[(1S,2S)-2-hydroxycyclopentyl]amino]phthalazin-1-yl]-5-(trifluoromethyl)phenol] | 5.62 | 172 µM (≈ 67 µg/mL) | 9.2 µg/mL (≈ 23.6 µM) | 6.73 |  |
| Oc1cc(C(F)(F)F)ccc1-c1nnc(N[C@H]2CCCC[C@@H]2O)c2ccccc12 [Example 26, 2-[4-[[(1S,2S)-2-hydroxycyclohexyl]amino]phthalazin-1-yl]-5-(trifluoromethyl)phenol] | 5.70 | 148 µM (≈ 59.7 µg/mL) | 8.3 µg/mL (≈ 20.6 µM) | 6.22 |  |
| Cc1ccc2c(NC[C@H](O)CO)nnc(-c3ccc(C(F)(F)F)cc3O)c2c1 [Example 15, (2S)-3-[[4-[2-hydroxy-4-(trifluoromethyl)phenyl]-6-methyl-phthalazin-1-yl]amino]propane-1,2-diol] | 6.66 | 155 µM (≈ 61 µg/mL) | 14.7 µg/mL (≈ 37.4 µM) | 7.59 |  |
| Oc1cc(F)ccc1-c1nnc(N[C@@H]2CC[C@@H](O)C2)c2cnccc12 [Example 85, 5-fluoro-2-(4-(((1R,3R)-3-hydroxycyclopentyl)amino)pyrido[3,4-d]pyridazin-1-yl)phenol] | 6.32 | 68 µM (≈ 23.1 µg/mL) |  |  |  |
| Oc1cc(F)ccc1-c1nnc(N[C@@H]2CCCC[C@H]2O)c2ccncc12 [Example 78, 5-fluoro-2-(1-(((1R,2R)-2-hydroxycyclohexyl)amino)pyrido[3,4-d]pyridazin-4-yl)phenol] | 5.94 | 958 µM (≈ 340 µg/mL) |  |  |  |
| Oc1cc(C(F)(F)F)ccc1-c1nnc(N[C@@H]2CCCCC[C@H]2O)c2ccccc12 (racemic) [Example 27, rac-(1R,2R)-2-[[4-[2-hydroxy-4-(trifluoromethyl)phenyl]phthalazin-1-yl]amino]cycloheptanol] | 6.25 | 9 µM (≈ 3.76 µg/mL) | 2.1 µg/mL (≈ 5.03 µM) | 7.47 |  |
| Oc1cccc(F)c1-c1nnc(N[C@@H]2CC[C@@H](O)C2)c2ccncc12 [Example 86, 3-fluoro-2-(1-(((1R,3R)-3-hydroxycyclopentyl)amino)pyrido[3,4-d]pyridazin-4-yl)phenol] | 5.21 |  |  |  |  |
| C[C@]1(O)C[C@H](Nc2nnc(-c3ccc(C(F)(F)F)cc3O)c3ccncc23)C1 [Example 84, 2-(4-(((1r,3r)-3-hydroxy-3-methylcyclobutyl)amino)pyrido[3,4-d]pyridazin-1-yl)-5-(trifluoromethyl)phenol] | 7.06 | 20 µM (≈ 7.81 µg/mL) | > 78.1 µg/mL | 7.57 |  |
| C[C@]1(O)C[C@@H](Nc2nnc(-c3ccc(Cl)cc3O)c3ccncc23)C1 [Example 68, 5-chloro-2-(4-(((1s,3s)-3-hydroxy-3-methylcyclobutyl)amino)pyrido[3,4-d]pyridazin-1-yl)phenol] | 7.72 | 44 µM (≈ 15.7 µg/mL) |  |  | 8.70 |
